This note sets out measurements from publication PMC5773580, “A synthetic combinatorial approach to disabling deviant Hedgehog signaling” (Scientific Reports, 2018).

Data set [1] deals with SHH-induced GLI activity (GLI-BS reporter) in NIH3T3. The data set can be described thus: HH pathway reporter (GLI-BS reporter) assay, +Shh in NIH3T3. Type of data set: cell-based. Conditions: Mus musculus; +Shh in NIH3T3, 48 hrs with compound. As for the experimental part:
(§1) The HH-responsive firefly luciferase reporter (GLI-BS) and a control Renilla luciferase reporter (SV40-RL) were transfected into indicated cell lines using Effectene (Qiagen) either alone or with indicated DNAs. 24 hrs after transfection, cells were switched to low serum media (3% calf serum), and grown for another 48 hrs. in 5% CO2 in the presence/absence of compounds. 3T3-ShhFL cell line that stably expressing SHH and the two reporters were cultured in a similar fashion. FL and RL activities in lysate generated using Passive Lysis Buffer (Promega) were then assessed using the Dual-Luciferase kit (Promega) and a 96-well plate reading luminometer (BMG). The ratio of FL/RL was calculated and the averaged ratios from three replicates were reported.

Data set [2] deals with GLI-BS reporter in Ptch1-/- MEFs. In words: GLI-BS reporter assay in Ptch1-/- MEFs. Type of data set: cell-based. As for the experimental part: as §1
The next data set concerns Caco-2 cells. The data set can be described thus: Caco-2 transwell cell permeability assay read out with 3T3-ShhFL reporter cells. Type of data set: in vitro ADME. The note with it: 10μM, 6hrs, "B" CM tested on 3T3-ShhFL cells. On the procedure: Caco-2 cell permeability assay was previously described. Briefly, Caco-2 cells were grown to confluence in 12-well transwell plates. Culture medium was replaced with 10μM of compounds in DMEM/ 3% calf serum and incubated for 6hrs. Diluted media were added to confluent 3T3-ShhFL cells for 48hrs and measure the Hh pathway activity by reporter assay.

The test system of data set [3] is GLI1 binding to DNA in RMS13 cells. In words: GLI DNA binding assay (biotinylated oligo pulldown). Type of data set: cell-based. The note with it: lysate of RMS13 cells treated 48 hrs. On the procedure:
A detailed protocol for DNA binding assay was previously described. Briefly, cells treated for 48 hrs with compounds were lysed in 1% NP40/phosphate buffered saline/protease inhibitors and cleared using a microcentrifuge. The lysate was then incubated with 0.5 µM of double-strand biotinylated oligonucleotides and 40 µl streptavidin-agarose bead suspension (Thermo Scientific, 20349) for 2 hrs. The streptavidin agarose beads are washed (3X) with 1% NP40/phosphate buffered saline/protease inhibitors and eluted with 2X Laemmli sample buffer. The supernatants are separated on SDS-PAGE and analyzed using western blotting. Antibodies were purchased from the following vendors: GLI1 (Cell Signaling Technology, #2534) and actin (SIGMA, #A5441).

For data set [4], the system named is HDAC activity (acetylated tubulin) in NIH-3T3 cells. The data set can be described thus: Acetylation assay, Western blot of acetylated tubulin. The note with it: 48hrs. Type of data set: cell-based. As for the experimental part:
(§2) For analyzing acetylation status of histone 3 and tubulin, NIH3T3 cells were grown to confluence in 6-well plates. After 48hrs of treatment with indicated chemicals, cells were lysed in RIPA buffer or 1% NP40/phosphate buffered saline/protease inhibitors (SIGMA, #S8820), the lysate cleared using a microcentrifuge, then 6 × sample loading buffer (Bioland Scientific) added to the supernatant. Proteins were separated on SDS-PAGE (BioRad Criterion TGX Precast Gels). Antibodies used for analyzing the blots were: acetylated tubulin (SIGMA, #T6793), tubulin, acetyl-histone H3 (Lys23), and histone H3 (Cell Signaling Technology, #2125 S, #8848 and #9717, respectively). Chemiluminescence was detected using a Li-COR Odyssey Imaging System.
On the technique in general: A western blot detects proteins with antibodies after separation by electrophoresis.

For data set [5], the system named is SMO-L412F in NIH3T3 (GLI-BS reporter). In words: GLI-BS reporter assay, NIH3T3 cells with SMO-L412F DNA. Conditions: Mus musculus. Type of data set: cell-based. On the procedure:
as §1
Background: A reporter such as luciferase makes a cellular process visible.

In data set [6] the test system is RMS13 cells (GLI1 amp), GLI-BS reporter. In words: GLI-BS reporter assay in RMS13 cells (GLI1 amplification). Type of data set: cell-based. As for the experimental part:
as §1

Data set [7] deals with SMO-M2 in NIH3T3 (GLI-BS reporter). The data set can be described thus: GLI-BS reporter assay, NIH3T3 cells with SMO-M2 DNA. The note with it: Mus musculus. Type of data set: cell-based. As for the experimental part: as §1
Data set [8] deals with nuclear HDAC activity (Ac-H3) in NIH-3T3 cells. In words: Acetylation assay, Western blotting for acetylated histone 3 (Ac-H3). Type of data set: cell-based. Conditions: 48hrs, Western blot. As for the experimental part: as §2

As to `O=C(Nc1ccc(NC(=O)c2cc(Cl)ccc2Cl)cc1)c1cc(Cl)ccc1Cl` [IHR-1, reference compound], the half-inhibitory concentration (IC50) (as a rule, the point on the concentration scale where inhibition reaches its midpoint) in data set [1] is 7 nM; in [2], 25 nM.

For `CC(C)(C)OC(=O)NCCCCCCC(=O)Nc1ccc(Cl)c(C(=O)Nc2ccc(NC(=O)c3cc(Cl)ccc3Cl)cc2)c1` [IHR-C7], the “ability to transverse a cell monolayer (cell permeability)” value in the data set with Caco-2 cells is “improved”. Besides, the half-inhibitory concentration (IC50) in data set [1] was found to be 4 nM.

Regarding `O=C(CCCCCCC(=O)Nc1ccccc1)NO` [SAHA, suberanilohydroxamic acid], the “GLI1 binding to immobilized oligos with consensus GLI binding sequence” value in data set [3] is recorded as “loss of GLI1 binding”.

Regarding `CC(C)(C)OC(=O)Nc1ccc(Cl)c(C(=O)Nc2ccc(NC(=O)c3cc(Cl)ccc3Cl)cc2)c1` [IHR-NBoc, tert-butyl (4-chloro-3-((4-(2,5-dichlorobenzamido)phenyl)carbamoyl)phenyl)carbamate], the IC50 in [1] turned out to be 1.9 nM.

For `O=C(CCCCCCC(=O)Nc1ccc(Cl)c(C(=O)Nc2cccc(NC(=O)c3cc(Cl)ccc3Cl)c2)c1)NO` [IHR (meta)-SAHA], the IC50 in data set [1] stood at 2300 nM; in data set [5], 920 nM; in [6], 1200 nM; in data set [7], 850 nM; in data set [2], 2500 nM. Also, in data set [4], the “HDAC inhibitory activity, acetylated tubulin accumulation (ratio to total tubulin), compared with SAHA” value was “increase in anti-HDAC activity”. Besides, the “HDAC inhibitory activity, accumulation of acetylated histone 3 (ratio Ac-H3 to total H3)” value in data set [8] was “retain HDAC inhibitory activity”.
